Source: patent publication US8691799B2, “Materials and methods for treatment of cancer and identification of anti-cancer compounds” (priority 2001, dated 2014)

Key:
Assay type in all cases: biochemical
[1] = test system: Src; assay: Src kinase autophosphorylation assay on immunoprecipitates; conditions: immunoprecipitates from A549, MDA-MB-468 or v-Src/NIH 3T3 cells
Procedure: Src Kinase Assay. A549, MDA-MB-468, and v-Src cells were harvested and lysed for 30 min on ice in RIPA150 buffer (10 mM Tris, pH 7.5, 150 mM NaCl, 10% glycerol, 5 mM EDTA, 1% Triton-X-100, 0.1% SDS, 100 μM sodium orthovanadate, 10 μg/ml aprotinin, 10 μg/ml leupeptin, 1 μg/ml antipain). Samples were spun at high speed to clear, then 1000 μg of protein were immunoprecipitated per treatment condition with 2 μg v-Src antibody (Ab-1, Oncogene Research Products, San Diego, Calif.) rocking overnight at 4° C. 25 μl of protein A/G PLUS agarose then was added and rocking continued for 4 hr at 4° C. Samples were spun to collect agarose pellet, and pellet washed three times in RIPA150 buffer, twice in RIPA10 buffer (10 mM Tris, pH 7.5, 10 mM NaCl, 10% glycerol, 5 mM EDTA, 1% Triton-X-100, 0.1% SDS, 100 μM sodium orthovanadate 10 μg/ml aprotinin, 10 μg/ml leupeptin, 1 μg/ml antipain), and three times in 40 mM Tris, pH 7.4. Pellet was then resuspended in 30 μl kinase reaction buffer (20 mM Tris, pH 7.4, 5 mM MgCl2) containing 10 μCi γ-[^32P]ATP. Inhibitors were preincubated for several minutes before the addition of the ATP. Kinase reactions were carried out at room temperature for 15 min. Reaction was stopped with the addition of 2×SDS-PAGE sample buffer. Samples were boiled and run on 10% SDS-PAGE gels. Autophosphorylation results were visualized by autoradiography.

[2] = test system: JAK1; assay: JAK kinase autophosphorylation assay on immunoprecipitates (JAK1); conditions: immunoprecipitates from MDA-MB-468 or v-Src/NIH 3T3 cells; AG490 100 μM, PD180970 2 μM
Procedure: (§1) JAK Kinase Assays. A549, MDA-MB-468, and v-Src transformed NIH 3T3 cells were harvested, washed three times in PBS-V (10 mM sodium phosphate, pH 7.4, 137 mM NaCl, 1 mM sodium orthovanadate) then lysed for 30 min on ice in JAK kinase lysis buffer (25 mM Hepes, pH 7.4, 0.1% Triton-X-100, 0.5 mM DTT, 1 mM sodium orthovanadate, 1 mM PMSF, 10 μg/ml aprotinin, 10 μg/ml leupeptin). Samples were spun at high speed to clear, and 800-1000 μg of protein was immunoprecipitated per treatment condition with 50 ng of either JAK1 or JAK2 antibody (Santa Cruz Biotechnology) rocking overnight at 4° C. 25 μl of protein A/G PLUS agarose then was added and rocking continued for 1 hr at 4° C. Samples were spun to collect agarose pellet, and pellet washed twice in wash buffer (50 mM Hepes, pH 7.4, 0.1% Triton-X-100, 0.5 mM DTT, 150 mM NaCl) and once in phosphorylation buffer (50 mM Hepes, pH 7.4, 0.1% Triton-X-100, 0.5 mM DTI, 6.25 mM manganese chloride, 100 mM NaCl). Kinase reactions were performed at 30° C. for 15 min in a final volume of 100 μl of phosphorylation buffer. Samples were pretreated with DMSO control, JSI-124, and control compounds (AG490, 100 μM, and […], 2 μM) before addition of 20 μCi/sample y-[^32P]ATP. Reaction was halted using stop buffer (wash buffer plus 10 mM EDTA), samples spun to collect pellet, then pellet washed once with stop buffer and twice with wash buffer. Samples were then placed in 2×SDS-PAGE sample buffer, boiled at 100° C., and run on 8% SDS-PAGE gels to separate proteins. Autophosphorylation results were visualized by autoradiography.

[3] = biological target: T1, JAK2 (Homo sapiens, UniProt O60674); assay: JAK kinase autophosphorylation assay on immunoprecipitates (JAK2); conditions: immunoprecipitates from A549, MDA-MB-468 or v-Src/NIH 3T3 cells; AG490 100 μM, PD180970 2 μM
T1 construct: Src, JAK1, and JAK2 were immunoprecipitated from either A549, MDA-MB-468, or v-Src/NIH 3T3 cells; endogenous in cells; host or cells: A549, MDA-MB-468, v-Src transformed NIH 3T3 (immunoprecipitates)
T1 sequence (O60674 whole entry): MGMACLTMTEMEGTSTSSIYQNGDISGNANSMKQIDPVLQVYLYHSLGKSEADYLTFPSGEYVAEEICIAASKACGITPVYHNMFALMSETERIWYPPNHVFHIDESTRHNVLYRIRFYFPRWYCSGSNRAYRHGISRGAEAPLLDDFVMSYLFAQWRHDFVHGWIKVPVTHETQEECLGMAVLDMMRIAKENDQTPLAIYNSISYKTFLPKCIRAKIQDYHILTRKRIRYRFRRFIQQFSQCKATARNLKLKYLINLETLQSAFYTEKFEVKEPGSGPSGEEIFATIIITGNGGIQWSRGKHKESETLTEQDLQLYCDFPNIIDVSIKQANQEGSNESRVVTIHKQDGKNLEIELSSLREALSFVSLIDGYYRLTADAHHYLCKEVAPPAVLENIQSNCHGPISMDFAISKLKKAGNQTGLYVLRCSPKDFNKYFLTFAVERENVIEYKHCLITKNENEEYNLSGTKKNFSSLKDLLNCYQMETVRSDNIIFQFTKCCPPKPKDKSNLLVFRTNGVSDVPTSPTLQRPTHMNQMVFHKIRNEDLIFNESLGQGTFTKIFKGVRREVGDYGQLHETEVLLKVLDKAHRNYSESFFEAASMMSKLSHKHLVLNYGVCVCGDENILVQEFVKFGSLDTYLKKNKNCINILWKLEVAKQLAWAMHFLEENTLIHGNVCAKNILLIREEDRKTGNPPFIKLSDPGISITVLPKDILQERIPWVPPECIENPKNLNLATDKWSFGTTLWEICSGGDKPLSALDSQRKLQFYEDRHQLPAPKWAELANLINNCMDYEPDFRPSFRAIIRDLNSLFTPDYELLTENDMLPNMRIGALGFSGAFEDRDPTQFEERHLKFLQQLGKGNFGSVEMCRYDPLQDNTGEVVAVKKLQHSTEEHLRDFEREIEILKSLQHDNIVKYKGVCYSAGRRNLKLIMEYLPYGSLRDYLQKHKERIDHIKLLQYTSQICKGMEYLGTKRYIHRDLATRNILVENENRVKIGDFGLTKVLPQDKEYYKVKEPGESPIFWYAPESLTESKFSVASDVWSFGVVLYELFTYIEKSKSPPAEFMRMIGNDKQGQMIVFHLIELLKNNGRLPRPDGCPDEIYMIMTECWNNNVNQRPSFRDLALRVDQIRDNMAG
Procedure: as §1

SMILES: N#C/C(=C/c1ccc(O)c(O)c1)C(=O)NCc1ccccc1 [AG490]
- Src kinase activity (autophosphorylation) in vitro [1]: not Src kinase activities
- JAK1 kinase activity (autophosphorylation) in vitro [2]: inhibited JAK1 and JAK2
- JAK2 kinase activity (autophosphorylation) in vitro [3]: inhibited JAK1 and JAK2

SMILES: Cc1cc(Nc2ncc3cc(-c4c(Cl)cccc4Cl)c(=O)n(C)c3n2)ccc1F [PD180970]
- Src kinase activity (autophosphorylation) in vitro [1]: inhibits Src
- JAK1 kinase activity (autophosphorylation) in vitro [2]: not JAK1 or JAK2 activities
- JAK2 kinase activity (autophosphorylation) in vitro [3]: not JAK1 or JAK2 activities
